Results taken from patent US20240247257A1, “SYSTEM AND METHODS FOR INSERTION AND EDITING OF LARGE NUCLEIC ACID FRAGMENTS” (WUHAN UNIVERSITY, priority 2021, published 2024).

Experiments:
Format in all cases: cell-based, human
RPE cells [1] = experiment: EdU incorporation assay of nascent DNA synthesis in RPE cells
Description: (§1) FIG. 11. GRAND editing mediates precise large insertion in non-dividing cells. a, The proliferation of RPE cells at 6 h, 12 h, 24 h, 48 h after treated with 1 or 2.5 μM Palbociclib, or 100, 200, 400 ng/mL Nocodazole was determined by cell counting. b, The cell cycles of RPE cells were determined by propidium iodide staining. c, Detection of the nascent DNA synthesis in RPE cells by 5-ethynyl-2′-deoxyuridine (EdU) incorporation assay. The proportions of EdU-labeled positive cells were determined by flow cytometry. d, A 100 bp DNA fragment was inserted at EGFP (595-647) site in non-dividing RPE cells using GRAND editing. The accurate editing and imperfect events were quantified by deep sequencing. Mean±s.d. of n=3 independent biological replicates for a, b, d, and n=3-5 independent biological replicates for c.
(§2) To determine whether GRAND editing-mediated targeted insertion is cell cycle independent, we used small molecule drugs to arrest the cell cycle of human retinal pigment epithelium (RPE) cell line. Palbociclib, a Cdk4 and Cdk6 inhibitor, effectively arrests cells in G1 phase. […] Next, we conducted the GRAND editing on RPE cells with Palbociclib or Nocodazole treatment.

RPE cells [2] = experiment: Proliferation of RPE cells by cell counting; settings: 100-400 ng/ml
Description: as §1, §2

RPE cells [3] = experiment: Cell cycle of RPE cells, propidium iodide staining, flow cytometry
Description: as §1, §2

COC(=O)Nc1nc2ccc(C(=O)c3cccs3)cc2[nH]1 [Nocodazole]
global DNA replication (EdU incorporation) (RPE cells [1]; at 24-48 hours): near fully inhibited replication
global DNA replication (EdU incorporation) (RPE cells [1]; at 12 hours): significantly suppressed global DNA replication
growth of RPE cells (RPE cells [2]): fully inhibited
cell cycle arrest (RPE cells [3]): arrest at G2 phase
